Columns and labels:
[1] = system: human hsp70 promoter; test: Luciferase reporter assay under control of human hsp70 promoter in L929 cells exposed to heat shock; format: cell-based, murine; conditions: 10 μM, heat shock at 40° C. and 41° C., Bimoclomol as internal positive control
Description: For example, L929 cells, incubated at 37° C., are stressed by heat shock at 40° or 41° C. with exposures variable from 20 min to an hour or more. After heat shock, a molecular assay that involves mRNA purification, its separation on agarose or acrylamide gels followed by hybridization with a labeled probe ([…] performed. Alternatively, the activity of luciferase used as reported gene under the control of a heat shock promoter can be used (FIG. 1). In this case, after heat shock cells are lysed in the presence of an appropriate substrate for luciferase, the activity is measured with a luminometer. […] The test utilized to assay the over expression of heat shock genes is based on a rapid enzymatic assay to determine luminescence of eukaryotic cells transfected with luciferase gene. The luciferase gene has been cloned in an eukaryotic plasmid under the control of human hsp70 gene and transfected in murine fibroblasts (L929 cell line). In such cells, a heat shock induces hsp70 promoter that activates transcription of the downstream gene (reporter gene, e.g. luciferase) whose activity is measured determining luciferase in the presence of luciferine with a luminometer. […] After lysis, luciferase activity has been determined measuring the quantity of light emitted with a luminometer. […]

[2] = Membrane fluidity (DPH fluorescence anisotropy) in artificial membranes (LUVs); conditions: LUVs of di-oleil-fosfatidyl-ethanolamine, di-oleil-fosfatidyl-choline, cardiolipin and fosfatidylserine; 1 DPH per 500 lipid molecules
Description: Test to evaluate changes of MPS in artificial membranes (LUVs, Large Unilamellar Vesicles), made of di-oleil-fosfatidyl-ethanolamine, di-oleil-fosfatidyl-choline, cardiolipin and fosfatidylserine, that mimic biological membrane lipid composition. Fluidity has been measured with DPH (1,6-difenyl-1,3,5-esatriene) measuring fluorescence.
In these membranes, every 500 lipid molecules is inserted. 1 molecule of DPH This substance emits fluorescent light when it is excited with polarized light. The more a membrane is rigid the less is the capacity of the molecules to rotate freely in the membrane. Using a fluorimeter that detects the emitted fluorescence by DPH, either vertically in respect to the polarizing light or horizontally, the anisotropy of the membrane is determined and correlated to its fluidity. The more the membrane is fluid, the more DPH rotates freely and emits light in a direction different from that with which it receives the excitation. To a higher value of anisotropy corresponds a higher rigidity of the membrane, while a lower anisotropy (low fluorescence) corresponds a higher fluidity.

Compound | heat shock response (hsp70 promoter-driven luciferase activity / inducibility of hsp70 mRNA transcription by heat shock) [1] | change of membrane physical state (fluidity) measured with DPH fluorescence [2]
Oc1ccc2c(c1)O[C@H](c1ccc(O)c(O)c1)[C@@H](O[C@@H]1OC[C@@H](O)[C@H](O)[C@H]1O)C2 [#11, fisetinidol-3-O-β-D-xylopyranoside] | induce a heat shock response | increases fluidity
Oc1ccc(C=Cc2cc(O)cc(O)c2)cc1 [#100, Resveratrol, reference compound] | inhibits the inducibility of hsp70 mRNA transcription by heat shock | 
